Source: PubChem BioAssay (NCI)
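Cells were grown in 96-well plates and exposed to each compound for 48 hours at five concentrations; endpoints were interpolated linearly between bracketing concentrations, or set to the highest concentration if not reached. GI50 = concentration required for 50% inhibition of growth. Definition used: TGI = concentration required for complete inhibition of growth.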

Assays:
Test in all cases: NCI tumour cell line growth inhibition, 48 h
MDA-MB-468 breast = system: MDA-MB-468 breast
786-0 renal = system: 786-0 renal
A549 NSCLC = system: A549 NSCLC
ACHN renal = system: ACHN renal
BT-549 breast = system: BT-549 breast
CAKI-1 renal = system: CAKI-1 renal
CCRF-CEM leukemia = system: CCRF-CEM leukemia
COLO 205 colon = system: COLO 205 colon
DU-145 prostate = system: DU-145 prostate
EKVX NSCLC = system: EKVX NSCLC
HCC-2998 colon = system: HCC-2998 colon
HCT-116 colon = system: HCT-116 colon
HCT-15 colon = system: HCT-15 colon
HL-60(TB) leukemia = system: HL-60(TB) leukemia
HOP-62 NSCLC = system: HOP-62 NSCLC
HOP-92 NSCLC = system: HOP-92 NSCLC
HS 578T breast = system: HS 578T breast
HT29 colon = system: HT29 colon
K-562 leukemia = system: K-562 leukemia
KM12 colon = system: KM12 colon
LOX IMVI melanoma = system: LOX IMVI melanoma
M14 melanoma = system: M14 melanoma
MALME-3M melanoma = system: MALME-3M melanoma
MDA-MB-435 = system: MDA-MB-435
MOLT-4 leukemia = system: MOLT-4 leukemia
NCI-H23 lung = system: NCI-H23 lung
NCI-H522 lung = system: NCI-H522 lung
OVCAR-3 ovarian = system: OVCAR-3 ovarian
OVCAR-4 ovarian = system: OVCAR-4 ovarian
OVCAR-5 ovarian = system: OVCAR-5 ovarian
OVCAR-8 ovarian = system: OVCAR-8 ovarian
PC-3 prostate = system: PC-3 prostate
RPMI-8226 leukemia = system: RPMI-8226 leukemia
RXF 393 renal = system: RXF 393 renal
SF-268 CNS = system: SF-268 CNS
SF-295 CNS = system: SF-295 CNS
SF-539 CNS = system: SF-539 CNS
SK-MEL-2 melanoma = system: SK-MEL-2 melanoma
SK-OV-3 ovarian = system: SK-OV-3 ovarian
SN12C renal = system: SN12C renal
SNB-19 CNS = system: SNB-19 CNS
SNB-75 CNS = system: SNB-75 CNS
SR leukemia = system: SR leukemia
SW-620 colon = system: SW-620 colon
T-47D breast = system: T-47D breast
UACC-62 melanoma = system: UACC-62 melanoma

With Cc1c(Cl)cccc1C(=O)Nc1nc2c(s1)CN(C(=O)c1ccc(C(F)(F)F)cc1)CC2 the GI50 (MDA-MB-468 breast) was 36.5 nM and the TGI (MDA-MB-468 breast) was over 35700 nM.
Work on Nc1ncnc2c1N=C(c1ccc3c(c1)OCO3)CC(c1ccc([N+](=O)[O-])cc1)N2 (stereo unspecified) yielded a GI50 (MDA-MB-468 breast) of 25200 nM and a TGI (MDA-MB-468 breast) of 60400 nM.
CN1CCN(C(=O)Oc2cc3c(c4ccccc24)[C@H](CCl)CN3C(=O)c2cc3cc(OCCCN4CCC4)ccc3[nH]2)[C@@H]2CSSC[C@H]21 showed a GI50 (786-0 renal) of 13.1 nM, a TGI (786-0 renal) of 40 nM and a GI50 (A549 NSCLC) of 1.79 nM. For the same molecule, the TGI (A549 NSCLC) was over 10000 nM, the GI50 (ACHN renal) was 2.37 nM and the TGI (ACHN renal) was 7.23 nM. For the same molecule, the GI50 (BT-549 breast) was 21.3 nM, the TGI (BT-549 breast) was 81.8 nM and the GI50 (CAKI-1 renal) was 2.82 nM. It also gave a TGI (CAKI-1 renal) of over 10000 nM, a GI50 (CCRF-CEM leukemia) of 7.41 nM and a TGI (CCRF-CEM leukemia) of 3320 nM. It also gave a GI50 (COLO 205 colon) of 14.8 nM, a TGI (COLO 205 colon) of 33.8 nM and a GI50 (DU-145 prostate) of 3.91 nM. For the same molecule, the TGI (DU-145 prostate) was 2440 nM, the GI50 (EKVX NSCLC) was 12.2 nM and the TGI (EKVX NSCLC) was 40.6 nM. It also gave a GI50 (HCC-2998 colon) of 3.47 nM, a TGI (HCC-2998 colon) of 15.2 nM and a GI50 (HCT-116 colon) of 6.75 nM. For the same molecule, the TGI (HCT-116 colon) was over 10000 nM, the GI50 (HCT-15 colon) was 3.82 nM and the TGI (HCT-15 colon) was 24.2 nM. For the same molecule, the GI50 (HL-60(TB) leukemia) was 9.94 nM, the TGI (HL-60(TB) leukemia) was 321 nM and the GI50 (HOP-62 NSCLC) was 5.17 nM. It also gave a TGI (HOP-62 NSCLC) of 60.1 nM, a GI50 (HOP-92 NSCLC) of 18.2 nM and a TGI (HOP-92 NSCLC) of 62.9 nM. For the same molecule, the GI50 (HS 578T breast) was 27.9 nM, the TGI (HS 578T breast) was 124 nM and the GI50 (HT29 colon) was 8.29 nM. The TGI (HT29 colon) was over 10000 nM, the GI50 (K-562 leukemia) was 4.4 nM and the TGI (K-562 leukemia) was over 10000 nM. It also gave a GI50 (KM12 colon) of 15.7 nM, a TGI (KM12 colon) of 1520 nM and a GI50 (LOX IMVI melanoma) of 2.2 nM. For the same molecule, the TGI (LOX IMVI melanoma) was 15.8 nM, the GI50 (M14 melanoma) was 5.63 nM and the TGI (M14 melanoma) was 21.2 nM. It also gave a GI50 (MALME-3M melanoma) of 6.37 nM, a TGI (MALME-3M melanoma) of 20 nM and a GI50 (MDA-MB-435) of 12.7 nM. It also gave a TGI (MDA-MB-435) of 38.1 nM, a GI50 (MDA-MB-468 breast) of 2.55 nM and a TGI (MDA-MB-468 breast) of 7.92 nM. It also gave a GI50 (MOLT-4 leukemia) of 4.45 nM, a TGI (MOLT-4 leukemia) of 223 nM and a GI50 (NCI-H23 lung) of 1.74 nM. The TGI (NCI-H23 lung) was 5.41 nM, the GI50 (NCI-H522 lung) was 10.9 nM and the TGI (NCI-H522 lung) was 35.4 nM. It also gave a GI50 (OVCAR-3 ovarian) of 27.4 nM, a TGI (OVCAR-3 ovarian) of over 10000 nM and a GI50 (OVCAR-4 ovarian) of 27.5 nM. The TGI (OVCAR-4 ovarian) was 93.4 nM, the GI50 (OVCAR-5 ovarian) was 6.88 nM and the TGI (OVCAR-5 ovarian) was 40.8 nM. For the same molecule, the GI50 (OVCAR-8 ovarian) was 3.29 nM, the TGI (OVCAR-8 ovarian) was 129 nM and the GI50 (PC-3 prostate) was 19.7 nM. For the same molecule, the TGI (PC-3 prostate) was 981 nM, the GI50 (RPMI-8226 leukemia) was 23.2 nM and the TGI (RPMI-8226 leukemia) was 1840 nM. For the same molecule, the GI50 (RXF 393 renal) was 5.66 nM, the TGI (RXF 393 renal) was 19 nM and the GI50 (SF-268 CNS) was 8.99 nM. For the same molecule, the TGI (SF-268 CNS) was 293 nM, the GI50 (SF-295 CNS) was 2.25 nM and the TGI (SF-295 CNS) was 6.82 nM. It also gave a GI50 (SF-539 CNS) of 5.25 nM, a TGI (SF-539 CNS) of 21 nM and a GI50 (SK-MEL-2 melanoma) of 18.7 nM. It also gave a TGI (SK-MEL-2 melanoma) of 35.2 nM, a GI50 (SK-OV-3 ovarian) of 15 nM and a TGI (SK-OV-3 ovarian) of over 10000 nM. For the same molecule, the GI50 (SN12C renal) was 10.5 nM, the TGI (SN12C renal) was 98.6 nM and the GI50 (SNB-19 CNS) was 5.79 nM. For the same molecule, the TGI (SNB-19 CNS) was 76.2 nM, the GI50 (SNB-75 CNS) was 19.7 nM and the TGI (SNB-75 CNS) was 75 nM. The GI50 (SR leukemia) was 1.68 nM, the TGI (SR leukemia) was 39.2 nM and the GI50 (SW-620 colon) was 2.28 nM. The TGI (SW-620 colon) was 1480 nM, the GI50 (T-47D breast) was 14.8 nM and the TGI (T-47D breast) was over 10000 nM. It also gave a GI50 (UACC-62 melanoma) of 2.2 nM and a TGI (UACC-62 melanoma) of 10.5 nM.
